Assay results reported in patent publication US10005792B2, “Aminoindane-, aminotetrahydronaphthalene- and aminobenzocyclobutane-derived PRMT5-inhibitors” (CTXT PTY LTD, priority 2014, dated 2018).
pIC50: −log10 of the molar value.

Legend:
[1] = biological target: T1, Full-length PRMT5 enzyme co-expressed with MEP50 (Homo sapiens (Human), UniProt O14744); experiment: PRMT5 Biochemical Assay; conditions: 200 nM histone H4 derived peptide substrate, 1 μM S-Adenosyl methionine, 4 hours at 37° C, Transcreener EPIGEN fluorescence polarisation
Procedure: Compounds of the invention may be tested for in vitro activity in the following assay: A histone H4 derived peptide is used as substrate (amino acid sequence: […]NH2). Full-length PRMT5 enzyme (NCBI Reference sequence NP-006100.2) was co-expressed with Hiss-MEP50 in insect cells and purified via Nickel immobilized metal affinity and gel filtration chromatography (“the enzyme”).
The 6 μL assay reactions are run in Greiner brand black 384-well low volume plates. All reactions contained assay buffer (phosphate buffered saline, 0.01% (v/v) Tween-20, 0.01% (w/v) albumin from chicken egg white, 1 mM dithiothreitol, 200 nM peptide substrate, 1 μM S-Adenosyl methionine, and 15 ng/reaction enzyme, with the enzyme being omitted from negative control reactions. Compounds were added in a volume of 100 nL from dilution series prepared in DMSO, positive and negative control reactions receiving the same volume DMSO without compound. The plates were sealed with adhesive seals and incubated for 4 hours at 37° C. Reaction progress was measured using the Transcreener™ EPIGEN methyltransferase assay (BellBrook Labs, Madison, Wis.) as recommended by the manufacturer. To each reaction 2 μL detection mix were added, containing coupling enzymes, fluorescence polarisation tracer, and AMP antibody. Plates were incubated for 90 min before being read on a PerkinElmer EnVision™ plate reader in fluorescence polarisation mode.

[2] = tested on: symmetrical dimethylation of arginine (Di-Methyl Histone H4R3) in cell line TE11; experiment: PRMT5 Biomarker Assay; format: cell-based; conditions: Homo sapiens, TE-11; TE11 cells, 72 h incubation, EpiQuik Global Di-Methyl Histone H4R3 ELISA, corrected for total protein
Procedure: (§1) Compounds of the invention may be tested for potency to inhibit symmetrical dimethylation of arginine in the following assay:
The cell line TE11 was seeded at a density of 12,000 cells per well in 96 well tissue culture plates in DME medium and 10% foetal bovine serum, and allowed to adhere overnight under standard culture conditions (37° C., 5% CO2). Compound dilutions prepared in DMSO were added to the medium, with negative control wells reserved for treatment with DMSO only and positive controls receiving a potent PRMT5 inhibitor. The concentration of the inhibitor had been previously determined to give maximum inhibition of the methylation. After incubation for 72 h, cells were washed twice in ice-cold PBS, lysed in lysis buffer (20 mM Tris pH 7.4, 135 mM NaCl, 1.5 mM MgCl2, 1 mM EGTA, 10% glycerol and 1% Triton-X100), centrifuged at 15,000×g and the supernatants collected for subsequent analysis. The methylation level was determined using the EpiQuik™ Global Di-Methyl Histone H4R3 Quantification ELISA Kit (Epigentek, Farmingdale, N.Y.) as per the manufacturer's recommendations; in parallel the total protein amount in the lysate was quantified using a Lowry protein assay. The methylation level was corrected for the total protein amount of each sample, normalised to the controls, and the data fitted against a four-parameter logistic model to determine the 50% inhibitory concentration (IC50).

[3] = tested on: symmetrical dimethylation of arginine (Di-Methyl Histone H4 Arginine 3) in cell line TE11; experiment: Revised PRMT5 Biomarker Assay; conditions: Homo sapiens, TE-11; TE11 cells, 72 hours incubation, immunofluorescence, corrected for cell number (Hoechst 33342), plate reader based
Procedure: as §1
The cell line TE11 was seeded at a density of 6,000 cells per well in 96 well optical quality tissue culture plates in DME medium and 10% foetal bovine serum, and allowed to adhere for 5 hours under standard culture conditions (37 degree Celsius, 5% CO2). Compound dilutions prepared in DMSO were added to the medium, with negative control wells reserved for treatment with DMSO only and positive controls receiving a potent PRMT5 inhibitor compound at 1 μM concentration. After incubation for 72 hours, the cells were fixed with 3.7% formaldehyde in PBS for 30 minutes at room temperature, washed with phosphate buffer saline and blocked with Odyssey blocking buffer (LI-COR, Lincoln, Nebr.). Rabbit anti-Di-Methyl Histone H4 Arginine 3 specific antibody (Epigentek) in Odyssey blocking buffer was added and incubated for 14 hours at 4 degree Celsius. After washing, anti-rabbit secondary antibody labelled with Alexa647 dye (LifeTechnologies) and Hoechst 33342 (1 μg/mL, SigmaAldrich) were added for 1 hour incubation. Plates were washed and read on a PerkinElmer Envision 2103 in fluorescence intensity scanning mode (24 scans across the well area). The methylation level information was corrected for the number of cells as expressed by the Hoechst 33342 stain, converted to percent inhibition relative to controls on the same plate and the data fitted against a four-parameter logistic model to determine the 50% inhibitory concentration (IC50 plate-reader based). Alternatively, the plates were imaged on a PerkinElmer Phenix high content imaging platform. Using a Columbus image analysis pipeline, individual nuclei were located by Hoechst 33342 stain and the methylation level was calculated from the Alexa647-related intensity in the same area. The resulting mean intensity per cell was directly converted to percent inhibition as outlined above (IC50, imager based)).

[4] = biological target: T1, Full-length PRMT5 enzyme co-expressed with MEP50; experiment: Revised PRMT5 Biochemical Assay; conditions: 1 μM histone H4 derived peptide substrate, 1 μM S-Adenosyl methionine, 4 hours at 37 degree Celsius, Transcreener EPIGEN fluorescence polarisation
How it was run: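 Full-length human PRMT5 co-expressed with His-MEP50 in insect cells (15 ng/reaction), 1 μM H4-derived peptide and 1 μM SAM in PBS/0.01% Tween-20/egg albumin/1 mM DTT, 4 h at 37 °C. SAH formation read by Transcreener EPIGEN fluorescence polarisation after 90 min detection. IC50 from four-parameter fit of plate-normalised % inhibition.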

T1 sequence (O14744 whole entry): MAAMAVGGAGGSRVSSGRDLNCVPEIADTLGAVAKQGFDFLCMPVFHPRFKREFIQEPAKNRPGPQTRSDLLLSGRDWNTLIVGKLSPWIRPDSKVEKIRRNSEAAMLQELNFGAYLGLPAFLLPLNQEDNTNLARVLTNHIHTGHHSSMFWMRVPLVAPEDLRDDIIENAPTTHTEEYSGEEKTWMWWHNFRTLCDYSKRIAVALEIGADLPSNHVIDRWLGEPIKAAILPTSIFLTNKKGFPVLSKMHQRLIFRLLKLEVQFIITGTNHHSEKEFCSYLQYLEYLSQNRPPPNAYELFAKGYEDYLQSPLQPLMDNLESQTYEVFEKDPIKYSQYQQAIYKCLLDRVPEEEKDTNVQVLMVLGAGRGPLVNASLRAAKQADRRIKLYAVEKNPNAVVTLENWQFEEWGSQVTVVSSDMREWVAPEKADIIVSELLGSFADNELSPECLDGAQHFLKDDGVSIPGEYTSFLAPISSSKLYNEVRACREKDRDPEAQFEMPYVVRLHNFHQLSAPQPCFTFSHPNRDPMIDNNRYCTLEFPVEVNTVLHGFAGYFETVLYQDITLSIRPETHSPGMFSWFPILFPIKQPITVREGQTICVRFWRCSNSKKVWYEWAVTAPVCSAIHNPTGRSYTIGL
T1 sequence (Q9BQA1 whole entry partner): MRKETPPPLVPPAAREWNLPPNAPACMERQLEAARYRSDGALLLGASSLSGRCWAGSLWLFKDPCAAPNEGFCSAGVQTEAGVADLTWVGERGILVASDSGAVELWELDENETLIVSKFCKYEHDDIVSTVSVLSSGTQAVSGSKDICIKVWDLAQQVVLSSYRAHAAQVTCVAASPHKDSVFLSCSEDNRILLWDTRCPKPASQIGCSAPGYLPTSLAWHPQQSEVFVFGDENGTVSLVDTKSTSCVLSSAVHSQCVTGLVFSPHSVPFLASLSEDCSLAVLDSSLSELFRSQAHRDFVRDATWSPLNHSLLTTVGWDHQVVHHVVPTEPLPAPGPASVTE

## O=C(NCC(O)CNC1Cc2ccccc2C1)c1ccc(C(=O)N2CCOCC2)cc1 (stereo not shown) [Compound 2, N-(3-((2,3-Dihydro-1H-inden-2-yl)amino)-2-hydroxypropyl)-4-(morpholine-4-carbonyl)benzamide]
[1]
  pIC50: 6.51
[2]
  pIC50: 7.16

## Cc1nonc1COc1ccc(C(=O)NC[C@H](O)CNC2Cc3ccccc3C2)cc1 [Compound 8, (R)-N-(3-((2,3-Dihydro-1H-inden-2-yl)amino)-2-hydroxypropyl)-4-((4-methyl-1,2,5-oxadiazol-3-yl)methoxy)benzamide]
[1]
  pIC50: 6.58
[2]
  pIC50: 6.47

## Cn1cc(Oc2ccc(C(=O)NC[C@H](O)CNC3Cc4ccccc4C3)cc2)cn1 [Compound 13, (R)-N-(3-((2,3-Dihydro-1H-inden-2-yl)amino)-2-hydroxypropyl)-4-((1-methyl-1H-pyrazol-4-yl)oxy)benzamide]
[1]
  pIC50: 6.20
[2]
  pIC50: 6.46

## O=C(NC[C@@H](O)CNC1Cc2ccccc2C1)c1ccc(Cl)cc1 [Compound 14, (S)-4-Chloro-N-(3-((2,3-dihydro-1H-inden-2-yl)amino)-2-hydroxypropyl)benzamide]
[1]
  pIC50: 6.35
[2]
  pIC50: 6.68

## O=C(NC[C@@H](O)CNC1Cc2ccccc2C1)c1ccc(C(=O)N2CCOCC2)cc1 [Compound 15, (S)-N-(3-((2,3-Dihydro-1H-inden-2-yl)amino)-2-hydroxypropyl)-4-(morpholine-4-carbonyl)benzamide]
[1]
  pIC50: 6.66
[2]
  pIC50: 7.52
[3]
  IC50: 0.025 µM

## O=C(NC[C@@H](O)CNC1Cc2ccccc2C1)c1ccc(N2CCOCC2)nc1 [Compound 16, (S)-N-(3-((2,3-Dihydro-1H-inden-2-yl)amino)-2-hydroxypropyl)-6-morpholinonicotinamide]
[1]
  pIC50: 6.52
[2]
  pIC50: 6.59

## Cn1cc(Oc2ccc(C(=O)NC[C@@H](O)CNC3Cc4ccccc4C3)cc2)cn1 [Compound 18, (S)-N-(3-((2,3-dihydro-1H-inden-2-yl)amino)-2-hydroxypropyl)-4-((1-methyl-1H-pyrazol-4-yl)oxy)benzamide]
[1]
  pIC50: 6.62
[2]
  pIC50: 7.04

## O=C(NCC(O)CNC1Cc2ccccc2C1)c1ccc(C(=O)N2CCCCC2)cc1 (stereo not shown) [Compound 22, N-(3-((2,3-Dihydro-1H-inden-2-yl)amino)-2-hydroxypropyl)-4-(piperidine-1-carbonyl)benzamide]
[1]
  pIC50: 6.77
[2]
  pIC50: 7.74
[3]
  IC50: 0.106 µM

## O=C(NCC(O)CNC1Cc2ccccc2C1)c1ccc(-c2ccccc2)cc1 (stereo not shown) [Compound 24, N-(3-((2,3-Dihydro-1H-inden-2-yl)amino)-2-hydroxypropyl)-[1,1′-biphenyl]-4-carboxamide]
[1]
  pIC50: 6.37
[2]
  pIC50: 6.44

## O=C(NCC(O)CNC1CCc2ccccc2C1)c1ccc(Cl)cc1 (stereo not shown) [Compound 30, 4-Chloro-N-(2-hydroxy-3-((1,2,3,4-tetrahydronaphthalen-2-yl)amino)propyl)benzamide]
[1]
  pIC50: 6.04
[2]
  pIC50: 5.72

## CC(=O)N1CCC(Nc2cc(C(=O)NCC(O)CNC3Cc4ccccc4C3)ccn2)CC1 (stereo not shown) [Compound 35, 2-((1-Acetylpiperidin-4-yl)amino)-N-(3-((2,3-dihydro-1H-inden-2-yl)amino)-2-hydroxypropyl)isonicotinamide]
[1]
  pIC50: 7.30
[2]
  pIC50: 8.10
[4]
  pIC50: 6.81
[3]
  IC50: 0.04 µM

## C[C@@H]1COCCN1C(=O)c1ccc(C(=O)NC[C@@H](O)CNC2Cc3ccccc3C2)cc1 [Compound 37, N—((S)-3-((2,3-Dihydro-1H-inden-2-yl)amino)-2-hydroxypropyl)-4-((R)-3-methylmorpholine-4-carbonyl)benzamide]
[1]
  pIC50: 7.02
[2]
  pIC50: 7.72
[4]
  pIC50: 6.79

## C[C@H]1COCCN1C(=O)c1ccc(C(=O)NC[C@@H](O)CNC2Cc3ccccc3C2)cc1 [Compound 38, N—((S)-3-((2,3-Dihydro-1H-inden-2-yl)amino)-2-hydroxypropyl)-4-((S)-3-methylmorpholine-4-carbonyl)benzamide]
[1]
  pIC50: 6.68
[2]
  pIC50: 7.96
[4]
  pIC50: 6.51
[3]
  IC50: 0.053 µM

## O=C(NCC(O)CNC1Cc2ccccc2C1)c1ccc(C(=O)N2C3CCC2COC3)cc1 (stereo not shown) [Compound 40, 4-(3-Oxa-8-azabicyclo[3.2.1]octane-8-carbonyl)-N-(3-((2,3-dihydro-1H-inden-2-yl)amino)-2-hydroxypropyl)benzamide]
[1]
  pIC50: 7.24
[2]
  pIC50: 8.70
[3]
  IC50: 0.021 µM

## COc1cc(C(=O)N2CCOCC2)ccc1C(=O)NC[C@@H](O)CNC1Cc2ccccc2C1 [Compound 98, (S)-N-(3-((2,3-dihydro-1H-inden-2-yl)amino)-2-hydroxypropyl)-2-methoxy-4-(morpholine-4-carbonyl)benzamide]
[2]
  pIC50: 8.15
[4]
  pIC50: 6.55
[3]
  IC50: 0.361 µM

## CCOc1cc(C(=O)N2CCOC[C@H]2C)ccc1C(=O)NC[C@@H](O)CNC1Cc2ccccc2C1 [Compound 123, N-((S)-3-((2,3-dihydro-1H-inden-2-yl)amino)-2-hydroxypropyl)-2-ethoxy-4-((R)-3-methylmorpholine-4-carbonyl)benzamide]
[4]
  pIC50: 7.40
[3]
  IC50: 0.012 µM

## CCOc1cc(C(=O)N2CCOC[C@@H]2CC)ccc1C(=O)NC[C@@H](O)CNC1Cc2ccccc2C1 [Compound 124, N-((S)-3-((2,3-dihydro-1H-inden-2-yl)amino)-2-hydroxypropyl)-2-ethoxy-4-((S)-3-ethylmorpholine-4-carbonyl)benzamide]
[4]
  pIC50: 7.32
[3]
  IC50: 0.013 µM

## CCOc1cc(C(=O)N2C[C@H]3C[C@@H]2CO3)ccc1C(=O)NC[C@@H](O)CNC1Cc2ccccc2C1 [Compound 127, 4-((1R,4R)-2-oxa-5-azabicyclo[2.2.1]heptane-5-carbonyl)-N-((S)-3-((2,3-dihydro-1H-inden-2-yl)amino)-2-hydroxypropyl)-2-ethoxybenzamide]
[4]
  pIC50: 6.86
[3]
  IC50: 0.002 µM

## O=C(NC[C@@H](O)CNC1Cc2ccccc2C1)c1ccc(C(=O)N2C3CCC2COC3)cc1F [Compound 133, 4-(3-oxa-8-azabicyclo[3.2.1]octane-8-carbonyl)-N((S)-3-((2,3-dihydro-1H-inden-2-yl)amino)-2-hydroxypropyl)-2-fluorobenzamide]
[4]
  pIC50: 6.88
[3]
  IC50: 0.009 µM

## CCOc1cc(C(=O)N2C3CCCC2COC3)ccc1C(=O)NC[C@@H](O)CNC1Cc2ccccc2C1 [Compound 135, 4-(3-Oxa-9-azabicyclo[3.3.1]nonane-9-carbonyl)-N—((S)-3-((2,3-dihydro-1H-inden-2-yl)amino)-2-hydroxypropyl)-2-ethoxybenzamide]
[4]
  pIC50: 7.82
[3]
  IC50: 0.0003 µM
